Our source for the Kd values is EP0871764B1, “SCREENING METHOD” (Novartis AG, priority 1995, dated 1997).

In this experiment the target is T1, RAC-PK PH domain (Homo sapiens, UniProt P31749).
T1 construct: pGEX-PH131 contains an in-frame fusion of amino acids 1-131 of human RAC-PKα with GST; GST (N, cleaved yes); made in house; host or cells: E. coli (JM109)
T1 sequence (P31749 1-131): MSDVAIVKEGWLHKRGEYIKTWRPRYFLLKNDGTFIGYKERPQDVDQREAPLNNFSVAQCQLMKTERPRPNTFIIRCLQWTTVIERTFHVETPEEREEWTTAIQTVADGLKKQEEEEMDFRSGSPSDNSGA
The experiment is described as follows: Quenching of the intrinsic Trp fluorescence of the PH domain by phospholipids and inositol phosphates. In kind it is binding. The conditions noted are these: calculated from reduction of 345nm fluorescence (excited at 290nm); 10mM Hepes/NaOH, pH 7.0, 10mM MgCl2, 25°C; read-out: Dissociation Constant. The protocol: Purified PH domain obtained according to Example 1 is incubated at a concentration of 1.4µM in 10mM Hepes/NaOH, pH 7.0, 10mM MgCl2, at 25°C.
Under the same conditions as Example 3, the RAC-PK PH domain is incubated in the presence of varying concentrations of phospholipids and inositol phosphates and fluorescence is measured. […]
Take Ptd-Ins (4,5)bisphosphate: the Kd was 400 nM.
In the case of `O=P(O)(O)OC1C(O)C(O)C(O)C(O)C1O` (centres unmarked) [Ins (2) monophosphate], the Kd was 8400 nM.
For the compound `O=P(O)(O)OC1C(O)C(O)C(O)C(O)C1O` (centres unmarked) [Ins (1) monophosphate], the Kd is 7000 nM.
On to `O=P(O)(O)OC1C(O)C(O)C(OP(=O)(O)O)C(OP(=O)(O)O)C1O` (centres unmarked) [Ins (1,4,5) trisphosphate], for which the Kd was 1200 nM.
For `O=P(O)(O)OC1C(O)C(O)C(OP(=O)(O)O)C(O)C1O` (centres unmarked) [Ins (1,4) bisphosphate], the Kd is 900 nM.
